Experimental findings from PubChem BioAssay (NCI) are described below.

Molecules are shown by their SMILES.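 Interpolation was linear, between the two tested concentrations surrounding the appropriate level; five concentrations were tested over 48 hours in 96-well plates. Here, GI50 denotes the concentration required for 50% inhibition of growth. The concentration for full growth arrest is given as TGI.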 Where a SMILES comes first, the peptide text is derived from it. The star is where a group is joined. Cbz = O=C(OCc1ccccc1)*; CH2Cl = ClC*

Some test systems named below: EKVX NSCLC; SNB-19 CNS; SK-OV-3 ovarian; MALME-3M melanoma; HCT-116 colon; RPMI-8226 leukemia; HOP-92 NSCLC; RXF 393 renal; HL-60(TB) leukemia; SK-MEL-5 melanoma.
Common to all, as to experiment: growth of human tumour cells (NCI), 48 h

For the compound `COc1cc(F)ccc1-c1ncnc(Nc2cccc(CS(C)(=N)=O)c2)n1` (stereo unspecified), the GI50 was 1.4 µM in the test on EKVX NSCLC; 1.08 µM in the test with SNB-19 CNS; 2.9 µM in the test on SK-OV-3 ovarian; 2.73 µM with MALME-3M melanoma; 0.421 µM in the test with HCT-116 colon; 3.17 µM with RPMI-8226 leukemia. The GI50 was 0.671 µM in the test with HOP-92 NSCLC, 0.239 µM with RXF 393 renal and 0.392 µM in the test on HL-60(TB) leukemia. Besides, the TGI is 37.2 µM with EKVX NSCLC; over 100 µM with SNB-19 CNS; over 100 µM with SK-OV-3 ovarian; 9.66 µM with MALME-3M melanoma; over 100 µM with HCT-116 colon; 61 µM in the test on RPMI-8226 leukemia. Moreover, the figures for the TGI in the test on HOP-92 NSCLC, with RXF 393 renal and in the test with HL-60(TB) leukemia were 4.19 µM, 0.534 µM and 3.14 µM, respectively.
For `COc1ccc(-c2nn(-c3ccc(NC(=O)c4ccc(Cl)c(Cl)c4)cc3)cc2-c2ccncc2)cc1Cl`, the GI50 was 3.25 µM in the test with EKVX NSCLC; 1.91 µM in the test with SK-MEL-5 melanoma; 4.2 µM in the test on SNB-19 CNS; 4.29 µM with SK-OV-3 ovarian; 5.88 µM with MALME-3M melanoma; 2.5 µM in the test on HCT-116 colon. In addition, the GI50 with RPMI-8226 leukemia was 0.831 µM; in the test with HOP-92 NSCLC it was 7.65 µM; in the test on RXF 393 renal it was 0.804 µM; in the test with HL-60(TB) leukemia it was 2.76 µM. Also, the TGI with EKVX NSCLC, in the test with SK-MEL-5 melanoma, in the test with SNB-19 CNS, in the test on SK-OV-3 ovarian, with MALME-3M melanoma and in the test on HCT-116 colon was over 50 µM in each case. For the same compound, the TGI with RPMI-8226 leukemia is over 11.6 µM; with HOP-92 NSCLC it was over 50 µM; with RXF 393 renal it was 1.75 µM; in the test on HL-60(TB) leukemia, over 50 µM.
Consider `CC1c2c(Cl)nc3ccccc3c2Oc2c1c(Cl)nc1ccccc21`, for which the TGI in the test with EKVX NSCLC, in the test on SK-MEL-5 melanoma, in the test with SNB-19 CNS, with SK-OV-3 ovarian, in the test on MALME-3M melanoma and with HCT-116 colon was over 100 µM throughout. Moreover, the TGI with RPMI-8226 leukemia, with HOP-92 NSCLC, in the test with RXF 393 renal and in the test with HL-60(TB) leukemia was over 100 µM throughout.
With `CCSc1ncnc2c1ncn2C1OC(CO)C(O)C1O` (stereo unspecified), the GI50 is 0.419 µM with EKVX NSCLC; 2.83 µM in the test with SK-MEL-5 melanoma; 8.24 µM in the test with SNB-19 CNS; 0.754 µM in the test with SK-OV-3 ovarian; 9.41 µM with MALME-3M melanoma; 0.339 µM in the test with HCT-116 colon. Besides, the GI50 with RPMI-8226 leukemia was 4.5 µM; in the test with HOP-92 NSCLC, 1.98 µM; with RXF 393 renal, 16 µM; in the test on HL-60(TB) leukemia, 0.354 µM. The TGI in the test on EKVX NSCLC, in the test with SK-MEL-5 melanoma, with SNB-19 CNS, with SK-OV-3 ovarian, in the test with MALME-3M melanoma and in the test with HCT-116 colon was over 100 µM throughout. The TGI in the test with RPMI-8226 leukemia was over 100 µM; in the test with HOP-92 NSCLC, 12.2 µM; with RXF 393 renal it was over 90.2 µM; with HL-60(TB) leukemia it was 31.1 µM.
`Cc1c2c(C#N)nccc2c(C)c2c1c1ccccc1n2Cc1ccccc1`: the TGI with EKVX NSCLC, with SK-MEL-5 melanoma, with SNB-19 CNS, in the test with SK-OV-3 ovarian, in the test with MALME-3M melanoma and in the test on HCT-116 colon was over 100 µM in each case. For the same compound, the TGI in the test with RPMI-8226 leukemia, in the test with HOP-92 NSCLC, in the test on RXF 393 renal and in the test on HL-60(TB) leukemia was over 100 µM in each case.
`Cn1cc(C2=C(c3cn(CCCCO)c4ccccc34)C(=O)NC2=O)c2ccccc21`: the GI50 in the test on SK-MEL-5 melanoma is 6.26 µM; in the test with SNB-19 CNS it was 14.7 µM; in the test with SK-OV-3 ovarian, 8.23 µM; in the test on MALME-3M melanoma it was over 21.6 µM; in the test with HCT-116 colon, 7.63 µM; in the test on RPMI-8226 leukemia, 9.23 µM. Further, the GI50 in the test with HOP-92 NSCLC is 17.1 µM; with RXF 393 renal it was 3.92 µM; in the test on HL-60(TB) leukemia, 6.71 µM. The TGI in the test with SK-MEL-5 melanoma was over 20.5 µM; in the test with SNB-19 CNS, over 25 µM; in the test with SK-OV-3 ovarian it was over 25 µM; in the test on MALME-3M melanoma, over 25 µM; in the test on HCT-116 colon it was over 25 µM; with RPMI-8226 leukemia, over 25 µM. For the same compound, the values for the TGI in the test with HOP-92 NSCLC, in the test on RXF 393 renal and in the test on HL-60(TB) leukemia were over 25 µM, 10.8 µM and 16.3 µM, respectively.
As for `CC(C)CC(NC(=O)OCc1ccccc1)C(=O)NC(Cc1ccccc1)C(=O)CCl` (stereo not drawn) (Cbz-Leu-Phe-CH2Cl; configuration not given here), the TGI is 34.5 µM with EKVX NSCLC; 3.5 µM with SK-MEL-5 melanoma; over 56.8 µM in the test with SNB-19 CNS; 16.1 µM in the test on SK-OV-3 ovarian; 4.16 µM in the test with MALME-3M melanoma; 3.31 µM with HCT-116 colon. In addition, the TGI amounted to 5.15 µM in the test with RPMI-8226 leukemia, 3.73 µM with HOP-92 NSCLC, 3.3 µM with RXF 393 renal and 3.53 µM in the test with HL-60(TB) leukemia.
`CS(=O)(=O)CCNCc1nc(-c2ccc3ncnc(Nc4ccc(OCc5cccc(C(F)(F)F)c5)cc4)c3c2)cs1`: the GI50 with EKVX NSCLC was over 20.4 µM; in the test on SK-MEL-5 melanoma, over 21.6 µM; in the test with SNB-19 CNS it was 11.1 µM; in the test on SK-OV-3 ovarian, 6.01 µM; with MALME-3M melanoma, 14 µM; in the test on HCT-116 colon, over 18.7 µM. Besides, the GI50 with RPMI-8226 leukemia was over 25 µM; in the test on HOP-92 NSCLC, 3.68 µM; in the test on RXF 393 renal, 5.57 µM; in the test on HL-60(TB) leukemia, over 25 µM. For the same compound, the TGI is over 25 µM in the test with EKVX NSCLC; over 25 µM with SK-MEL-5 melanoma; over 25 µM in the test on SNB-19 CNS; over 21.6 µM with SK-OV-3 ovarian; over 25 µM in the test with MALME-3M melanoma; over 25 µM in the test on HCT-116 colon. The TGI is over 25 µM in the test on RPMI-8226 leukemia, 15.8 µM in the test on HOP-92 NSCLC, over 25 µM in the test with RXF 393 renal and over 25 µM with HL-60(TB) leukemia.
On to `O=C(N[C@@H](c1ccc(Cl)c(Cl)c1)C1CNC1)c1ccc2cnccc2c1`, for which the GI50 with EKVX NSCLC was 0.288 µM; in the test on SK-MEL-5 melanoma, 2.85 µM; with SNB-19 CNS, 0.649 µM; with SK-OV-3 ovarian, 0.239 µM; in the test on MALME-3M melanoma, 0.138 µM; in the test with HCT-116 colon, 0.33 µM. Moreover, the GI50 in the test on RPMI-8226 leukemia is 1.56 µM; in the test on HOP-92 NSCLC, 0.0444 µM; in the test with RXF 393 renal, 0.023 µM; in the test on HL-60(TB) leukemia, 0.534 µM. Moreover, the TGI in the test on EKVX NSCLC came to 16.9 µM; in the test on SK-MEL-5 melanoma, 12.1 µM; with SNB-19 CNS it was 10.7 µM; in the test with SK-OV-3 ovarian, 6.86 µM; with MALME-3M melanoma it was 0.7 µM; with HCT-116 colon, 10.4 µM. In addition, the TGI with RPMI-8226 leukemia was determined as 8.87 µM; in the test with HOP-92 NSCLC it was 3.34 µM; with RXF 393 renal, 0.191 µM; in the test on HL-60(TB) leukemia it was 3.89 µM.
